Results: patent publication US20260191192A1, “ANTIMICROBIAL COMPOSITIONS COMPRISING PELARGONIC ACID” (LANXESS Corporation, priority 2023, published 2026)

Assays:
[1] = system: bacteria (Table 6 pool) and fungi; assay: Challenge test, overall result (full bacteria pool and fungi); type: cell-based
Description: (§1) The preservative activity in representative rinse-off and leave-on formulations was evaluated using a modification of the Personal Care Products Council (PCPC—formerly the Cosmetic, Toiletry and Fragrance Association) protocol (Machtiger, et al. 2001. Determination of the Efficacy of Preservation of Non-Eye Area Water Miscible Cosmetic and Toiletry Formulations: Collaborative Study. J of AOAC International. 84:1, 101-109).
(§2) This evaluation was conducted using a four week, two or three-cycle (i.e., two-cycle for personal care and three-cycle for home care applications) microbial preservative efficacy test (i.e., challenge test) at 25° C. to determine the preservative efficacy of each treatment. Phenoxyethanol, benzyl alcohol and pelargonic acid were tested alone and in various combinations. The pelargonic acid used in the testing was purchased from Sigma-Aldrich. Combinations of phenoxyethanol or benzyl alcohol with benchmark multifunctional booster compounds were also tested for comparison. The preservative and booster ingredients were dosed and mixed thoroughly at room temperature into various formulations, specifically different personal care formulations including a lotion (leave-on, Table 1), a micellar water (rinse-off, Table 2), and a body wash formulation (rinse-off, Table 3) and different home care formulations including a manual dishwashing formulation (Table 4) and a liquid laundry detergent formulation (Table 5). […] Carbomers are a commonly used synthetic rheological modifier in personal care products. The formulation below was made by heating the aqueous (A) and oil (B) phases separately to 75-80° C. The oil phase was then poured into the aqueous phase and mixed by a homogenizer at approximately 45° C. The formed oil-in-water emulsion was cooled to room temperature. Triethanolamine and/or diluted sodium hydroxide was used to adjust the final pH to 6.3 or 6.5 (as indicated in the examples below).
(§3) After dosing, the samples were divided into two separate five gram aliquots. One aliquot was inoculated with 50 μl of a diluted bacterial pool, and the second aliquot was inoculated with 50 μl of a diluted fungal pool as described below. Unpreserved product samples were included as a growth control.
(§4) For personal care products, a mixed bacterial inoculum was prepared using 24-hour cultures of the test bacteria (Table 6) grown in trypticase soy broth (TSB). For home care products, a mixed bacterial inoculum was prepared using 24-hour cultures of the test bacteria either from Table 6 (full pool) or Table 7 (simplified pool) grown in trypticase soy broth (TSB). Details are disclosed in the home care examples below. Equal volumes of the bacterial test strains were combined and diluted one to ten in phosphate buffer to obtain an inoculum of approximately 5×10^7 to 5×10^8 colony forming units per ml (cfu/ml). The test samples were inoculated with 1% of the mixed bacterial inoculum. For both personal care and home care products, a mixed fungal inoculum was prepared using cell suspensions of the yeast Candida albicans ATCC #10231 and the mold Aspergillus brasiliensis ATCC #16404 in phosphate buffer. Equal volumes of the fungal test strains were combined and diluted one to ten with phosphate buffer to obtain an inoculum of approximately 5×10^6 to 5×10^7 cfu/ml. The test samples were inoculated with 1% of the mixed fungal inoculum.
(§5) For personal care products, the samples were subjected to two microbial challenges at time zero and inoculated a second time after seven days. For home care products, the samples were subjected to three microbial challenges at time zero and inoculated a second and third time after seven and fourteen days, respectively. The number of microorganisms added to each sample was determined by a standard Most Probable Number (MPN) determination in Trypticase Soy Broth (TSB) for bacteria and Potato Dextrose Broth (PDB) for fungi. Samples were incubated at 25° C. for the test duration of four weeks.

[2] = system: mixed fungal inoculum: Candida albicans ATCC #10231 and Aspergillus brasiliensis ATCC #16404; assay: Challenge test (preservative efficacy), mixed fungal inoculum; type: cell-based
Description: as §1, §2, §3, §4, §5

[3] = system: mixed bacterial inoculum (Table 6); assay: Challenge test (preservative efficacy), mixed bacterial inoculum, full pool (Table 6); type: cell-based
Description: as §1, §2, §3, §4, §5

[4] = system: bacteria (Table 7 pool) and fungi; assay: Challenge test, overall result (simplified bacteria pool and fungi); type: cell-based; details: dosed 0.02 wt %
Description: as §1, §2, §3, §4, §5

[5] = system: mixed bacterial inoculum for home care (Table 7); assay: Challenge test (preservative efficacy), mixed bacterial inoculum, simplified pool (Table 7); type: cell-based, Pseudomonas aeruginosa, Staphylococcus aureus; details: dosed 0.02 wt %
Description: as §1, §2, §3, §4, §5

[6] = micellar water, pH 6.0, Example 1B, dosed 0.5 wt %
[7] = body wash, pH 6.5, Example 1E, dosed 0.5 wt %
[8] = lotion with carbomer, pH 6.3, Example 1A, dosed 0.4 wt %
[9] = micellar water, pH 6.0, Example 1B, dosed 0.3 wt %
[10] = micellar water, pH 6.0, Example 1C, dosed 0.3 wt %
[11] = liquid laundry detergent, pH 7.5, Example 1H, dosed 0.02 wt %
[12] = lotion with carbomer, pH 6.5, Example 1I, dosed 0.016 wt %

Structure (SMILES): CCCCC(O)CO (centres unmarked) [1,2 hexanediol]
- Overall Result [1, 6]: Fail
- Fungi growth rating Result [2, 6]: Fail (growth rating score caused by fungi of more than 2 at days 21-28 of the testing period)
- Bacteria growth rating Result ([3]; micellar water, pH 6.0, bacteria inoculation ~10^7 cfu/ml, Example 1B, dosed 0.5 wt %): Pass (growth rating score caused by bacteria of 1 or less at days 21-28 of the testing period)

Structure (SMILES): OCc1ccccc1 [Benzyl Alcohol (BA), benzyl alcohol]
- Overall Result [1, 7]: Fail
- Overall Result [1, 8]: Fail
- Overall Result [1, 9]: Fail
- Overall Result [1, 10]: Fail
- Fungi growth rating Result [2, 7]: Pass (growth rating score caused by fungi of 2 or less at days 21-28 of the testing period)
- Fungi growth rating Result [2, 8]: Fail (growth rating score caused by fungi of more than 2 at days 21-28 of the testing period)
- Fungi growth rating Result [2, 9]: Fail (growth rating score caused by fungi of more than 2 at days 21-28 of the testing period)
- Fungi growth rating Result [2, 10]: Fail (growth rating score caused by fungi of more than 2 at days 21-28 of the testing period)
- Bacteria growth rating Result [3, 7]: Fail (growth rating score caused by bacteria of 2 or more at days 21-28 of the testing period)
- Bacteria growth rating Result [3, 8]: Fail (growth rating score caused by bacteria of 2 or more at days 21-28 of the testing period)
- Bacteria growth rating Result ([3]; lotion with carbomer, pH 6.3, Example 1D, dosed 0.4 wt %): Fail (growth rating score caused by bacteria of 2 or more at days 21-28 of the testing period)
- Bacteria growth rating Result ([3]; lotion with carbomer, pH 6.3, Example 1D, dosed 0.8 wt %): Fail (growth rating score caused by bacteria of 2 or more at days 21-28 of the testing period)
- Bacteria growth rating Result ([3]; micellar water, pH 6.0, bacteria inoculation ~10^7 cfu/ml, Example 1B, dosed 0.3 wt %): Pass (growth rating score caused by bacteria of 1 or less at days 21-28 of the testing period)
- Bacteria growth rating Result ([3]; micellar water, pH 6.0, bacteria inoculation ~10^8 cfu/ml, Example 1C, dosed 0.3 wt %): Fail (growth rating score caused by bacteria of 2 or more at days 21-28 of the testing period)

Structure (SMILES): CCCCCCCC(=O)NO [Caprylhydroxamic acid (CHA), Caprylhydroxamic acid]
- Overall Result ([4]; liquid laundry detergent, pH 7.5, Example 1G): Fail
- Overall Result ([4]; manual dishwashing formulation, pH 5.5, Example 1F): Fail
- Overall Result [1, 11]: Fail
- Overall Result [1, 12]: Fail
- Fungi growth rating Result ([2]; liquid laundry detergent, pH 7.5, Example 1G, dosed 0.02 wt %): Fail (growth rating score caused by fungi of more than 2 at days 21-28 of the testing period)
- Fungi growth rating Result [2, 11]: Fail (growth rating score caused by fungi of more than 2 at days 21-28 of the testing period)
- Fungi growth rating Result [2, 12]: Fail (growth rating score caused by fungi of more than 2 at days 21-28 of the testing period)
- Fungi growth rating Result ([2]; manual dishwashing formulation, pH 5.5, Example 1F, dosed 0.02 wt %): Fail (growth rating score caused by fungi of more than 2 at days 21-28 of the testing period)
- Bacteria growth rating Result ([5]; liquid laundry detergent, pH 7.5, simplified bacteria pool, Example 1G): Fail (growth rating score caused by bacteria of 2 or more at days 21-28 of the testing period)
- Bacteria growth rating Result ([5]; manual dishwashing formulation, pH 5.5, simplified bacteria pool, Example 1F): Fail (growth rating score caused by bacteria of 2 or more at days 21-28 of the testing period)
- Bacteria growth rating Result ([3]; liquid laundry detergent, pH 7.5, full bacteria pool, Example 1H, dosed 0.02 wt %): Fail (growth rating score caused by bacteria of 2 or more at days 21-28 of the testing period)
- Bacteria growth rating Result [3, 12]: Fail (growth rating score caused by bacteria of 2 or more at days 21-28 of the testing period)
